Measurements taken from patent publication US5420156A, “Pharmacologically active compound and use” (Burroughs Wellcome Co., priority 1989, dated 1995).

Legend:
[1] = system: monoamine oxidase (MAO); conditions: background; cited from earlier work
[2] = system: MAO-A (brain); experiment: In vivo inhibition of brain MAO-A (ex vivo assay after oral dosing); set-up: species or system male Sprague-Dawley rats; conditions: for inhibition of brain MAO-A by the time of tyramine administration: single oral dose, 3 hours later (tyramine pressor study); for Percentage inhibition of MAO-A, Brain: 3 hours after dosing
Method: To determine MAO inhibition in brains and livers of rats pretreated with a reversible inhibitor, it was necessary to use an assay procedure that minimized dilution of the compound. Thus, high concentrations of tissue homogenates were incubated for very short periods of time. For brain assays, initial tissue was 3-fold diluted into each assay. […] Further dilution of liver homogenates was necessary in order to obtain reliable data. Substrate concentrations were not saturating, but were chosen relative to Km values for serotonin and β-phenethylamine in order to give an estimate of MAO-A and MAO-B, respectively. Brains from pretreated male Sprague-Dawley rats ([…]) were homogenized in a buffer consisting of 0.1 M potassium phosphate and 5% sucrose (pH 7.4) at a 1:1 tissue weight/buffer volume ratio, using a motorized Teflon/glass homogenizer. MAO-A and MAO-B were determined by incubating 100 μL of tissue homogenate with 50 μL of a double-label substrate mixture to give final concentrations of [^3 H]serotonin, 0.4 mM (5C/mole) and [^14 C]β-phenethylamine, 20 μM (3C/mole). For blank assays, 100 μL portions of homogeneous were pre-incubated for 15 min. at 37° C. with pargyline (4 mM) before substrate addition. Incubations with substrate present were at 37° C. for 30 sec. Assay mixtures were then acidified and products extracted as in the above in vitro method (White and Glassman, loc. cit.).

[3] = system: MAO-A (liver); experiment: In vivo inhibition of liver MAO-A (ex vivo assay after oral dosing); set-up: species or system rats
Method: To determine MAO inhibition in brains and livers of rats pretreated with a reversible inhibitor, it was necessary to use an assay procedure that minimized dilution of the compound. Thus, high concentrations of tissue homogenates were incubated for very short periods of time. For brain assays, initial tissue was 3-fold diluted into each assay. […] Further dilution of liver homogenates was necessary in order to obtain reliable data. Substrate concentrations were not saturating, but were chosen relative to Km values for serotonin and β-phenethylamine in order to give an estimate of MAO-A and MAO-B, respectively. Brains from pretreated male Sprague-Dawley rats (sacrificed 3 hours after oral dosing with the test compound) were homogenized in a buffer consisting of 0.1 M potassium phosphate and 5% sucrose (pH 7.4) at a 1:1 tissue weight/buffer volume ratio, using a motorized Teflon/glass homogenizer. MAO-A and MAO-B were determined by incubating 100 μL of tissue homogenate with 50 μL of a double-label substrate mixture to give final concentrations of [^3 H]serotonin, 0.4 mM (5C/mole) and [^14 C]β-phenethylamine, 20 μM (3C/mole). For blank assays, 100 μL portions of homogeneous were pre-incubated for 15 min. at 37° C. with pargyline (4 mM) before substrate addition. Incubations with substrate present were at 37° C. for 30 sec. Assay mixtures were then acidified and products extracted as in the above in vitro method (White and Glassman, loc. cit.).
Liver tissue was homogenized in the above phosphate-sucrose buffer at a 1:5 tissue weight/buffer volume ratio. Portions (100 μL) of homogenate were incubated with 50 μL of the above double-label substrate mixture. Blank assays included the same volume of homogenate pre-incubated with 4 mM pargyline for 15 min. at 37° C. After addition of substrates, mixtures were incubated at 37° C. for 30 sec, acidified, and products extracted as above.

[4] = system: MAO-A; experiment: Kinetic mechanism of MAO-A inhibition in vitro (substrate serotonin or tyramine varied); assay type: biochemical, rat or human
Method: (§1) MAO was assayed with [^3 H]serotonin (0.2 mM, 5G/mole) and [^14 C]β-phenethylamine (10 μM, 3 G/mole) as substrate in a double-label assay (White and Glassman, J. Neurochem, 29:987-97 (1977)). Under these conditions, serotonin is selectively metabolised by MAO-A and β-phenethylamine by MAO-B.
For studies of the kinetic mechanism of inhibition, the above method was used except that a single substrate, serotonin or tyramine, was varied over a 10-fold concentration range that included the Km concentration. When tyramine was used as substrate, the extract was pretreated with deprenyl (1 μM) to inhibit all MAO-B activity. MAO-A activity was determined in the absence and presence of the compound under test at each substrate concentration in duplicate or triplicate assays.

[5] = system: MAO-A; experiment: Reversibility of binding to MAO-A by dialysis
[6] = system: MAO-A; experiment: In vitro inhibition of MAO-A in mitochondrial extracts of rat or human brain (double-label assay); assay type: biochemical
Method: as §1

[7] = Acute oral toxicity, rats; assay type: in vivo; conditions: up to 1000 mg/kg., p.o.
[8] = system: MAO-B (brain); experiment: In vivo inhibition of brain MAO-B (ex vivo assay after oral dosing); set-up: species or system male Sprague-Dawley rats; conditions: 5, 10, 20 mg/kg p.o.
Method: (§2) To determine MAO inhibition in brains and livers of rats pretreated with a reversible inhibitor, it was necessary to use an assay procedure that minimized dilution of the compound. Thus, high concentrations of tissue homogenates were incubated for very short periods of time. For brain assays, initial tissue was 3-fold diluted into each assay. Because of the very high MAO activity. Further dilution of liver homogenates was necessary in order to obtain reliable data. Substrate concentrations were not saturating, but were chosen relative to Km values for serotonin and β-phenethylamine in order to give an estimate of MAO-A and MAO-B, respectively. Brains from pretreated male Sprague-Dawley rats (sacrificed 3 hours after oral dosing with the test compound) were homogenized in a buffer consisting of 0.1 M potassium phosphate and 5% sucrose (pH 7.4) at a 1:1 tissue weight/buffer volume ratio, using a motorized Teflon/glass homogenizer. MAO-A and MAO-B were determined by incubating 100 μL of tissue homogenate with 50 μL of a double-label substrate mixture to give final concentrations of [^3 H]serotonin, 0.4 mM (5C/mole) and [^14 C]β-phenethylamine, 20 μM (3C/mole). For blank assays, 100 μL portions of homogeneous were pre-incubated for 15 min. at 37° C. with pargyline (4 mM) before substrate addition. Incubations with substrate present were at 37° C. for 30 sec. […]

[9] = system: elevation of blood pressure by orally ingested tyramine; experiment: Response to orally ingested tyramine (elevation of blood pressure) in test mammals; assay type: in vivo; conditions: oral antidepressant doses prior to orally ingested tyramine
[10] = system: MAO-B (liver); experiment: In vivo inhibition of liver MAO-B (ex vivo assay after oral dosing); set-up: species or system rats; conditions: 5, 10, 20 mg/kg p.o.
Method: as §2

[11] = Acute oral toxicity, mice; assay type: in vivo; conditions: up to 1000 mg/kg., p.o.

## NNCCc1ccccc1 [pheneizine, reference compound]
[1]
  type of MAO inhibition: non-selective, irreversible inhibitors
[2]
  inhibition of brain MAO-A by the time of tyramine administration: approximately 80%
[3]; single oral dose producing approximately 80% inhibition of brain MAO-A
  inhibition of liver MAO-A in tyramine pressor study: ≥ 90%

## CCc1cccc2c1S(=O)(=O)c1ccccc1O2 [Compound I, 1-Ethylphenoxathiin 10,10-dioxide]
[4]; substrate serotonin or tyramine
  type of inhibition vs. the substrate serotonin or tyramine: competitive
[4]; vs. substrate serotonin
  Ki: 10 nM
[4]; vs. substrate tyramine, extract pretreated with deprenyl (1 μM)
  Ki: 10 nM
[5]
  binding to MAO-A, removal from its complex by dialysis: reversibly bound to MAO-A
[6]
  inhibition of MAO-A (in words): potent selective inhibition of MAO-A
[6]; read-out: I50 (concentration producing 50% inhibition)
  IC50: 35 nM
[7]
  visible effects after acute doses: No visible effects
[8]
  inhibition of MAO-B, brain: no significant inhibition
[9]
  increase in response (elevation of blood pressure) to orally ingested tyramine: No pharmacologically significant increase in response
[10]
  inhibition of MAO-B, liver: no significant inhibition
[2]; 5 mg/kg p.o.
  Percentage inhibition of MAO-A, Brain: 18.5 ± 8.1%
[2]; 10 mg/kg p.o.
  Percentage inhibition of MAO-A, Brain: 65.2 ± 6.6%
[2]; 20 mg/kg p.o.
  Percentage inhibition of MAO-A, Brain: 82.4 ± 2.6%
[2]; oral dose of 20 mg/kg
  time of peak inhibition of brain MAO-A: 1 to 6 h
[2]; oral dose of 20 mg/kg, 24 hours
  inhibition of brain MAO-A at 24 hours after dosing: negligible
[2]
  inhibition of brain MAO-A by the time of tyramine administration: approximately 80%
[11]
  visible effects after acute doses: No visible effects
[3]; 5 mg/kg p.o.
  Percentage inhibition of MAO-A, Liver: 32.8 ± 6.4%
[3]; 10 mg/kg p.o.
  Percentage inhibition of MAO-A, Liver: 61.8 ± 4.4%
[3]; 20 mg/kg p.o.
  Percentage inhibition of MAO-A, Liver: 78.9 ± 1.6%

## Cc1cc(C(=O)NNCc2ccccc2)no1 [isocarboxazid]
[1]
  type of MAO inhibition: non-selective, irreversible inhibitors

## N[C@@H]1C[C@H]1c1ccccc1 (relative stereo) [tranylcypromine]
[1]
  type of MAO inhibition: non-selective, irreversible inhibitors
